Test results: US20260116920A1, “HUMAN TRANSFERRIN RECEPTOR BINDING PEPTIDE” (PEPTIDREAM INC., priority 2021, published 2026)
Read-outs that look alike come from different tables or passages of the source. Positions of bridges follow the written chain, without caps; N, C: chain ends. Non-standard residues stand in square brackets, D forms with d. Residues, ends and D or L forms follow the SMILES beside them. *: point of attachment. NH(1-deoxy-D-glucityl) = OC[C@@H](O)[C@@H](O)[C@H](O)[C@@H](O)CN*; Trp(1-CH2COOH) = N[C@@H](Cc1cn(CC(=O)O)c2ccccc12)C(=O)O; Phe(3-COOH) = N[C@@H](Cc1cccc(C(=O)O)c1)C(=O)O; NH(CH2CH2O)8Me = COCCOCCOCCOCCOCCOCCOCCOCCN*; NMePhe(3-Cl) = CN[C@@H](Cc1cccc(Cl)c1)C(=O)O; 3Pal(6-NH2) = Nc1ccc(C[C@H](N)C(=O)O)cn1; Lys(N3) = [N-]=[N+]=NCCCC[C@H](N)C(=O)O; NMe4Pal = CN[C@@H](Cc1ccncc1)C(=O)O; NMeY = CN[C@@H](Cc1ccc(O)cc1)C(=O)O; NH(CH2CH2O)4Me = COCCOCCOCCOCCN*; 3Pal = N[C@@H](Cc1cccnc1)C(=O)O; 4Pal = N[C@@H](Cc1ccncc1)C(=O)O; PEG4 = NCCOCCOCCOCCOCCC(=O)O; Carboxymethyl = O=C(O)C*

Target: T1, human transferrin receptor (hTfR) (Homo sapiens, UniProt P02786)
T1 construct: made in house
T1 sequence (P02786 89-760 limits assumed): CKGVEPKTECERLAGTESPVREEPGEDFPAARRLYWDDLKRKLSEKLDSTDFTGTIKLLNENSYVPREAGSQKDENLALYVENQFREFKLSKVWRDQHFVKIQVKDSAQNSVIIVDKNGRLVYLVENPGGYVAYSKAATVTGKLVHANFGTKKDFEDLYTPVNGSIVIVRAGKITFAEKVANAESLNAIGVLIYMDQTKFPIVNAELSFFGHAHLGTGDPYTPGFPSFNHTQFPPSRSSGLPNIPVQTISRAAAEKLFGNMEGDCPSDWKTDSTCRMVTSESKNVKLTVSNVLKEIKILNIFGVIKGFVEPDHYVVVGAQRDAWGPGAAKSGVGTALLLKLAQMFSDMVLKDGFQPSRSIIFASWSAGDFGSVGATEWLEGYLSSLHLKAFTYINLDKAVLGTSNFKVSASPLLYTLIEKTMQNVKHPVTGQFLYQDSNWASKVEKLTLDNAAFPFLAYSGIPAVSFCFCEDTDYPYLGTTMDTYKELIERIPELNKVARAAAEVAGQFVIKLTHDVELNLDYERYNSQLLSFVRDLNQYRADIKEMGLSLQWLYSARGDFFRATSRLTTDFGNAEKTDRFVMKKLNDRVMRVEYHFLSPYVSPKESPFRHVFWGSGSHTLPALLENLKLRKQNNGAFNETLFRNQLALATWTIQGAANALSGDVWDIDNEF
Test: Evaluation of molecular interaction between transferrin receptor (hTfR) and peptide using surface plasmon resonance (SPR)
Type: binding
Method in brief: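 Using a Ni-NTA surface bearing covalently coupled hTfR dimer, peptides were tested at five concentrations from 5 to 100 nM. Running buffer was 10 mM HEPES pH 8.0, 150 mM NaCl, 0.05% Tween 20, 0.1% BSA, 1.0% DMSO; single-cycle sensorgrams were least-squares fitted for KD.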

[1] = surface plasmon resonance, binding to hTfR, KD class symbol, read-out: SPR (KD value)
[2] = KD class for binding to hTfR by SPR, peptide with the linker shown in the same line, 'low signal indicates no activity', read-out: SPR

SMILES | Kd [1] | other results
CC[C@H](C)[C@@H]1NC(=O)[C@H](Cc2ccc(O)cc2)NC(=O)[C@H](Cc2ccc(O)cc2)NC(=O)[C@H](CC(N)=O)NC(=O)[C@H](Cc2c[nH]c3ccccc23)N(C)C(=O)[C@H](C(C)C)NC(=O)[C@H](Cc2ccccc2)N(C)C(=O)[C@H](C(C)C)NC(=O)[C@H](C)NC(=O)CSC[C@@H](C(=O)NCC(=O)N[C@H](CCC(=O)O)C(=O)N[C@H](CCC(=O)O)C(=O)N[C@H](CCC(=O)O)C(=O)N[C@H](CO)C(=O)N[C@H](CO)C(=O)N[C@@H](CCCCN=[N+]=[N-])C(N)=O)NC(=O)[C@H](Cc2ccc(O)cc2)N(C)C(=O)[C@H](Cc2ccc(O)cc2)NC(=O)[C@H](CCCNC(=N)N)NC(=O)[C@H](CCCCN)NC(=O)[C@H]([C@@H](C)CC)NC1=O [compound 241] |  | Kd (peptide with linker, surface plasmon resonance, read-out: SPR (KD class for binding to hTfR)): 1 to 100 nM
CC[C@H](C)[C@@H]1NC(=O)[C@H](Cc2ccc(OCC(=O)O)cc2)NC(=O)[C@H](Cc2ccc(O)cc2)NC(=O)[C@H](CC(N)=O)NC(=O)[C@H](Cc2c[nH]c3ccccc23)NC(=O)[C@H](C(C)C)NC(=O)[C@H](Cc2cccc(Cl)c2)N(C)C(=O)[C@H](C(C)C)NC(=O)[C@H](C)NC(=O)CSC[C@@H](C(=O)NCC(=O)N[C@H](CO)C(=O)N[C@H](CO)C(=O)N[C@H](CO)C(=O)N[C@H](CO)C(=O)N[C@H](CO)C(N)=O)NC(=O)[C@H](Cc2ccc(O)cc2)N(C)C(=O)[C@H](CCC(=O)NCCOCCOCCOCCOC)NC(=O)[C@H](CCCNC(=N)N)NC(=O)[C@H](CCC(=O)NCCOCCOCCOCCOC)NC(=O)[C@H]([C@@H](C)CC)NC1=O [compound 125] | 1 to 100 nM | 
CC[C@H](C)[C@@H]1NC(=O)[C@H](Cc2ccc(OCC(=O)O)cc2)NC(=O)[C@H](Cc2ccc(O)cc2)NC(=O)[C@H](CC(N)=O)NC(=O)[C@H](Cc2c[nH]c3ccccc23)NC(=O)[C@H](C(C)C)NC(=O)[C@H](Cc2cccc(Cl)c2)N(C)C(=O)[C@H](C(C)C)NC(=O)[C@H](C)NC(=O)CSC[C@@H](C(=O)NCCOCCOCCOCCOCCC(N)=O)NC(=O)[C@H](Cc2ccc(O)cc2)N(C)C(=O)[C@H](CCC(=O)NCCOCCOCCOCCOC)NC(=O)[C@H](CCCNC(=N)N)NC(=O)[C@H](CCC(=O)NCCOCCOCCOCCOC)NC(=O)[C@H]([C@@H](C)CC)NC1=O [compound 124] ({CH2CO}-AV[NMePhe(3-Cl)]VWNYY(Carboxymethyl)IIE(NH(CH2CH2O)4Me)RE(NH(CH2CH2O)4Me)[NMeY]C[PEG4]-NH2; thioether N-15) | 1 to 100 nM | 
CC[C@H](C)[C@@H]1NC(=O)[C@H](Cc2ccc(OC)cc2)NC(=O)[C@H](Cc2ccc(O)cc2)NC(=O)[C@H](CC(N)=O)NC(=O)[C@H](Cc2c[nH]c3ccc(Cl)cc23)NC(=O)[C@H](C(C)C)NC(=O)[C@H](Cc2ccc(F)cc2)N(C)C(=O)[C@H](C(C)C)NC(=O)[C@H](C)NC(=O)CSC[C@@H](C(=O)NCCOCCOCCOCCOCCC(N)=O)NC(=O)[C@H](Cc2ccc(O)cc2)N(C)C(=O)[C@H](Cc2ccccc2)NC(=O)[C@@H](CCCNC(=N)N)NC(=O)[C@H](CCCNC(=N)N)NC(=O)[C@H]([C@@H](C)CC)NC1=O [compound 26] | 1 to 100 nM | 
CC[C@H](C)[C@@H]1NC(=O)[C@H](Cc2ccc(OCC(=O)O)cc2)NC(=O)[C@H](Cc2ccc(O)cc2)NC(=O)[C@H](CC(N)=O)NC(=O)[C@H](Cc2cn(CC(=O)O)c3ccccc23)NC(=O)[C@H](C(C)C)NC(=O)[C@H](Cc2cccc(Cl)c2)N(C)C(=O)[C@H](C(C)C)NC(=O)[C@H](C)NC(=O)CSC[C@@H](C(=O)NCCOCCOCCOCCOCCC(N)=O)NC(=O)[C@H](Cc2ccc(O)cc2)N(C)C(=O)[C@H](Cc2ccccc2)NC(=O)[C@H](CCCNC(=N)N)NC(=O)[C@H](CCC(=O)NC(COC)COC)NC(=O)[C@H]([C@@H](C)CC)NC1=O [compound 111] | 1 to 100 nM | 
CC[C@H](C)[C@@H]1NC(=O)[C@H](Cc2ccc(OCC(=O)O)cc2)NC(=O)[C@H](Cc2ccc(O)cc2)NC(=O)[C@H](CC(N)=O)NC(=O)[C@H](Cc2c[nH]c3ccccc23)NC(=O)[C@H](C(C)C)NC(=O)[C@H](Cc2cccc(Cl)c2)N(C)C(=O)[C@H](C(C)C)NC(=O)[C@H](C)NC(=O)CSC[C@@H](C(=O)NCCOCCOCCOCCOCCC(N)=O)NC(=O)[C@H](Cc2ccc(O)cc2)N(C)C(=O)[C@H](Cc2ccccc2)NC(=O)[C@H](CCCCN(C)C)NC(=O)[C@H](CCC(=O)NCCOCCOCCOCCOC)NC(=O)[C@H]([C@@H](C)CC)NC1=O [compound 122] | 1 to 100 nM | 
CC[C@H](C)[C@@H]1NC(=O)[C@H](Cc2ccc(OC)cc2)NC(=O)[C@H](Cc2ccc(N)nc2)NC(=O)[C@H](CC(N)=O)NC(=O)[C@H](Cc2c[nH]c3ccccc23)NC(=O)[C@H](C(C)C)NC(=O)[C@H](Cc2ccncc2)N(C)C(=O)[C@H](C(C)C)NC(=O)[C@H](C)NC(=O)CSC[C@@H](C(=O)NCCOCCOCCOCCOCCC(N)=O)NC(=O)[C@H](Cc2ccc(O)cc2)N(C)C(=O)[C@H](Cc2ccccc2)NC(=O)[C@H](CCCNC(=N)N)NC(=O)[C@H](CCCNC(=N)N)NC(=O)[C@H]([C@@H](C)CC)NC1=O [compound 64] ({CH2CO}-AV[NMe4Pal]VWN[3Pal(6-NH2)]Y(Me)IIRRF[NMeY]C[PEG4]-NH2; thioether N-15) | 1 to 100 nM | 
CC[C@H](C)[C@@H]1NC(=O)[C@H](Cc2ccc(OC)cc2)NC(=O)[C@H](Cc2ccc(O)cc2)NC(=O)[C@H](CC(N)=O)NC(=O)[C@H](Cc2cn(CC(=O)O)c3ccccc23)NC(=O)[C@H](C(C)C)NC(=O)[C@H](Cc2cccc(Cl)c2)N(C)C(=O)[C@H](C(C)C)NC(=O)[C@H](C)NC(=O)CSC[C@@H](C(=O)NCCOCCOCCOCCOCCC(N)=O)NC(=O)[C@H](Cc2ccc(O)cc2)N(C)C(=O)[C@H](Cc2cccc(C(=O)O)c2)NC(=O)[C@H](CCC(=O)NCCOCCOCCOCCOCCOCCOCCOCCOC)NC(=O)[C@H](CCCNC(=N)N)NC(=O)[C@H]([C@@H](C)CC)NC1=O [compound 77] ({CH2CO}-AV[NMePhe(3-Cl)]V[Trp(1-CH2COOH)]NYY(Me)IIRE(NH(CH2CH2O)8Me)[Phe(3-COOH)][NMeY]C[PEG4]-NH2; thioether N-15) | 1 to 100 nM | 
CC[C@H](C)[C@@H]1NC(=O)[C@H](Cc2ccc(O)cc2)NC(=O)[C@H](Cc2ccc(O)cc2)NC(=O)[C@H](CC(N)=O)NC(=O)[C@H](Cc2c[nH]c3ccccc23)NC(=O)[C@H](C(C)C)NC(=O)[C@H](Cc2ccccc2)N(C)C(=O)[C@H](C(C)C)NC(=O)[C@H](C)NC(=O)CSC[C@@H](C(N)=O)NC(=O)[C@H](Cc2ccc(O)cc2)N(C)C(=O)[C@H](Cc2ccccc2)NC(=O)[C@H](CCCCNC(=O)CCOCCOCCOCCOC)NC(=O)[C@H](CCCNC(=N)N)NC(=O)[C@H]([C@@H](C)CC)NC1=O [compound 2] | 1 to 100 nM | 
CC[C@H](C)[C@@H]1NC(=O)[C@H](Cc2ccc(OCC(=O)O)cc2)NC(=O)[C@H](Cc2ccc(O)cc2)NC(=O)[C@H](CC(N)=O)NC(=O)[C@H](Cc2cn(CC(=O)O)c3ccccc23)NC(=O)[C@H](C(C)C)NC(=O)[C@H](Cc2cccc(Cl)c2)N(C)C(=O)[C@H](C(C)C)NC(=O)[C@H](C)NC(=O)CSC[C@@H](C(=O)NCC(=O)N[C@@H](CCCCN=[N+]=[N-])C(N)=O)NC(=O)[C@H](Cc2ccc(O)cc2)N(C)C(=O)[C@H](Cc2ccccc2)NC(=O)[C@H](CCC(N)=O)NC(=O)[C@H](CCC(N)=O)NC(=O)[C@H]([C@@H](C)CC)NC1=O [894_3178] ({CH2CO}-AV[NMePhe(3-Cl)]V[Trp(1-CH2COOH)]NYY(Carboxymethyl)IIQQF[NMeY]CG[Lys(N3)]-NH2; thioether N-15) |  | Kd [2]: 1 to 100 nM
CC[C@H](C)[C@@H]1NC(=O)[C@H](Cc2cccnc2)NC(=O)[C@H](Cc2ccc(O)cc2)NC(=O)[C@H](CC(N)=O)NC(=O)[C@H](Cc2c[nH]c3ccccc23)NC(=O)[C@H](C(C)C)NC(=O)[C@H](Cc2cccc(Cl)c2)N(C)C(=O)[C@H](C(C)C)NC(=O)[C@H](C)NC(=O)CSC[C@@H](C(=O)NCCOCCOCCOCCOCCC(N)=O)NC(=O)[C@H](Cc2ccc(O)cc2)N(C)C(=O)[C@H](Cc2ccncc2)NC(=O)[C@H](CCC(=O)NC[C@H](O)[C@@H](O)[C@H](O)[C@H](O)CO)NC(=O)[C@H](CCC(=O)NC[C@H](O)[C@@H](O)[C@H](O)[C@H](O)CO)NC(=O)[C@H]([C@@H](C)CC)NC1=O [894_0328] ({CH2CO}-AV[NMePhe(3-Cl)]VWNY[3Pal]IIE(NH(1-deoxy-D-glucityl))E(NH(1-deoxy-D-glucityl))[4Pal][NMeY]C[PEG4]-NH2; thioether N-15) |  | Kd [2]: 1 to 100 nM
CC[C@H](C)[C@@H]1NC(=O)[C@H](Cc2ccc(OCC(=O)O)cc2)NC(=O)[C@H](Cc2ccc(O)cc2)NC(=O)[C@H](CC(N)=O)NC(=O)[C@H](Cc2cn(CC(=O)O)c3ccccc23)NC(=O)[C@H](C(C)C)NC(=O)[C@H](Cc2cccc(Cl)c2)N(C)C(=O)[C@H](C(C)C)NC(=O)[C@H](C)NC(=O)CSC[C@@H](C(=O)NCC(=O)N[C@@H](CCCCN=[N+]=[N-])C(N)=O)NC(=O)[C@H](Cc2ccc(O)cc2)N(C)C(=O)[C@H](Cc2ccccc2)NC(=O)[C@H](CCCNC(=N)N)NC(=O)[C@H](CCCNC(=N)N)NC(=O)[C@H]([C@@H](C)CC)NC1=O [894_3171] |  | Kd [2]: 1 to 100 nM
CC[C@H](C)[C@@H]1NC(=O)[C@H](Cc2ccc(OC)cc2)NC(=O)[C@H](Cc2ccc(O)cc2)NC(=O)[C@H](CC(N)=O)NC(=O)[C@H](Cc2c[nH]c3ccccc23)NC(=O)[C@H](C(C)C)NC(=O)[C@H](Cc2cccc(Cl)c2)N(C)C(=O)[C@H](C(C)C)NC(=O)[C@H](C)NC(=O)CSC[C@@H](C(=O)NCC(=O)N[C@@H](CCCCN=[N+]=[N-])C(N)=O)NC(=O)[C@H](Cc2ccc(O)cc2)N(C)C(=O)[C@H](Cc2ccc(O)cc2)NC(=O)[C@H](CCCNC(=N)N)NC(=O)[C@H](CCCNC(=N)N)NC(=O)[C@H]([C@@H](C)CC)NC1=O [894_3164] |  | Kd [2]: 1 to 100 nM
CC[C@H](C)[C@@H]1NC(=O)[C@H](Cc2ccc(OC)cc2)NC(=O)[C@H](Cc2ccc(O)cc2)NC(=O)[C@H](CC(N)=O)NC(=O)[C@H](Cc2c[nH]c3ccccc23)N(C)C(=O)[C@H](C(C)C)NC(=O)[C@H](Cc2cccc(Cl)c2)N(C)C(=O)[C@H](C(C)C)NC(=O)[C@H](C)N(C)C(=O)CSC[C@@H](C(=O)NCCOCCOCCOCCOCCC(N)=O)NC(=O)[C@H](Cc2ccc(O)cc2)N(C)C(=O)[C@H](Cc2ccccc2)NC(=O)[C@@H](C)NC(=O)[C@H](CCCNC(=N)N)NC(=O)[C@H]([C@@H](C)CC)NC1=O [compound 10] | 1 to 100 nM | 
